Assay results as given in publication PMC2765688, “Functional Characterization of N-Terminally GFP-Tagged GLP-1 Receptor” (Journal of Biomedicine and Biotechnology, 2009).

Legend:
GFP-GLP-1 receptor = target: T1, GFP-GLP-1 receptor (Homo sapiens, UniProt P43220); experiment: cAMP production, CHO cells expressing GFP-GLP-1 receptor; assay type: cell-based; settings: 10 μM forskolin, 15 min, 37°C
T1 construct: linker: translated MCS of pEGFP-C3 plus translated 5'-untranslated region of clone hGLPR-6(20), between EGFP and the receptor (N); expressed in transfected cells; host or cells: CHO cells, transient transfection, pEGFP-C3
Description: (§1) Cells were plated in 6-well plates at 50 × 10^4 cells/well and incubated 24 hours in growth medium supplemented with 10% fetal bovine serum.
(§2) After stimulation, stimulating buffer was removed and replaced with 150 μL of TE buffer (50 mM Tris, 5 mM EDTA, pH = 7.4). Cells were lysed by scraping, followed by boiling at 100°C for 5 minutes and centrifuged at 16000× g for 10 minutes. The supernatant was collected and the total content of cAMP was measured by a specific radioimmunoassay (Amersham).
(§3) Statistical analysis (one-way ANOVA) was carried out by Prism 4 computer program (GraphPad Software, USA), which was used also for graphical presentation of the results. In ANOVA analysis Tukey-Kramer multiple comparison test was used to reveal significant differences between groups of interest; P > .05 was not considered significant.

human GLP-1 receptor = target: T2, human GLP-1 receptor (Homo sapiens, UniProt P43220); experiment: cAMP production, CHO cells expressing GLP-1 receptor; assay type: cell-based; settings: 10 μM forskolin, 15 min, 37°C, P < .001
T2 construct: expressed in transfected cells; host or cells: CHO cells, transient transfection, pcDNA3
Description: as §1, §2, §3

- cAMP production in response to forskolin (in words) (GFP-GLP-1 receptor; CHO cells expressing GFP-GLP-1 receptor, P < .001): significantly increased
- Sensitivity to forskolin of GFP-GLP-1 receptor cells in comparison to GLP-1 receptor cells (in words) (GFP-GLP-1 receptor; Tukey-Kramer test): not more sensitive
- cAMP production in response to forskolin (in words) (human GLP-1 receptor): significantly increased
Structure (SMILES): C=C[C@@]1(C)CC(=O)[C@]2(O)[C@@]3(C)[C@@H](O)CCC(C)(C)[C@@H]3[C@H](O)[C@H](OC(C)=O)[C@@]2(C)O1 [forskolin]
